From patent US20210038515A1 (Azurity Pharmaceuticals, Inc., priority 2014, published 2021)

Tests used:
[1] = system: Bifidobacterium adolescentis; experiment: Agar dilution test, other anaerobic organisms; assay type: cell-based; conditions: for MIC, AV (average): average of triplicate; for MIC, VAN-1: replicate 1; for MIC, VAN-2: replicate 2; for MIC, VAN-3: replicate 3
Bacteroides fragilis = experiment: Agar dilution test, other anaerobic organisms; assay type: cell-based; conditions: for MIC, AV (average): average of triplicate; for MIC, VAN-1: replicate 1; for MIC, VAN-2: replicate 2; for MIC, VAN-3: replicate 3

## CN[C@H](CC(C)C)C(=O)N[C@H]1C(=O)N[C@@H](CC(N)=O)C(=O)N[C@H]2C(=O)N[C@H]3C(=O)N[C@H](C(=O)N[C@H](C(=O)O)c4cc(O)cc(O)c4-c4cc3ccc4O)[C@H](O)c3ccc(c(Cl)c3)Oc3cc2cc(c3O[C@@H]2O[C@H](CO)[C@@H](O)[C@H](O)[C@H]2O[C@H]2C[C@](C)(N)[C@H](O)[C@H](C)O2)Oc2ccc(cc2Cl)[C@H]1O.Cl [Sigma]
[1]; Bif. adolescentis RMA 21317
  MIC, AV (average): 1 mg/L
  MIC, VAN-1: 1 mg/L
  MIC, VAN-2: 1 mg/L
  MIC, VAN-3: 1 mg/L
[1]; Bif. adolescentis RMA 21531
  MIC, AV (average): 3 mg/L
  MIC, VAN-1: 0.5 mg/L
  MIC, VAN-2: 1 mg/L
  MIC, VAN-3: 1 mg/L
[1]; Bif. adolescentis RMA 21551
  MIC, AV (average): 1 mg/L
  MIC, VAN-1: 1 mg/L
  MIC, VAN-2: 1 mg/L
  MIC, VAN-3: 1 mg/L
[1]; Bif. adolescentis RMA 21680
  MIC, AV (average): 1 mg/L
  MIC, VAN-1: 1 mg/L
  MIC, VAN-2: 1 mg/L
  MIC, VAN-3: 1 mg/L
[1]; Bif. adolescentis RMA 21703
  MIC, AV (average): 1 mg/L
  MIC, VAN-1: 1 mg/L
  MIC, VAN-2: 1 mg/L
  MIC, VAN-3: 1 mg/L
Bacteroides fragilis; B. fragilis RMA 26978
  MIC, AV (average): >16 mg/L
  MIC, VAN-1: >16 mg/L
  MIC, VAN-2: >16 mg/L
  MIC, VAN-3: >16 mg/L
Bacteroides fragilis; B. fragilis RMA 26979
  MIC, AV (average): >16 mg/L
  MIC, VAN-1: >16 mg/L
  MIC, VAN-2: >16 mg/L
  MIC, VAN-3: >16 mg/L
Bacteroides fragilis; B. fragilis RMA 26980
  MIC, AV (average): >16 mg/L
  MIC, VAN-1: >16 mg/L
  MIC, VAN-2: >16 mg/L
  MIC, VAN-3: >16 mg/L
Bacteroides fragilis; B. fragilis RMA 26981
  MIC, AV (average): >16 mg/L
  MIC, VAN-1: >16 mg/L
  MIC, VAN-2: >16 mg/L
  MIC, VAN-3: >16 mg/L
Bacteroides fragilis; B. fragilis RMA 26982
  MIC, AV (average): >16 mg/L
  MIC, VAN-1: >16 mg/L
  MIC, VAN-2: >16 mg/L
  MIC, VAN-3: >16 mg/L
